{
  "source": "paper PMC2934701",
  "about": "(The Journal of Biological Chemistry, 2010)",
  "key": {"hTAS2R16 (ssr3-hTAS2R16) [1]": {"molecular_target": "T1, hTAS2R16 (ssr3-hTAS2R16) (Homo sapiens, UniProt Q9NYV7)", "T1 sequence (Q9NYV7 1-291)": "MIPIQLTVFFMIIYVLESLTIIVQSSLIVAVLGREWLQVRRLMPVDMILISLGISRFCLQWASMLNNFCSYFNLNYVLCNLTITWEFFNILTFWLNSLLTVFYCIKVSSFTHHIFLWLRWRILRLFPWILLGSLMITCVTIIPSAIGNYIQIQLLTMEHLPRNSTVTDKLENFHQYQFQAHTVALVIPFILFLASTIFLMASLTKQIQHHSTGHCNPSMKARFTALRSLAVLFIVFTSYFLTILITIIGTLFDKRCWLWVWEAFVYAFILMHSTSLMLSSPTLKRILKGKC", "test": "Fluo-4 calcium assay, HEK293T + Galpha16gust44", "format": "cell-based"}, "hTAS2R16 (ssr3-hTAS2R16) [2]": {"molecular_target": "T2, hTAS2R16 (ssr3-hTAS2R16) (Homo sapiens, UniProt Q9NYV7, E86D)", "T2 sequence (Q9NYV7 1-291 E86D)": "T1 sequence (Q9NYV7 1-291) with E86D", "test": "Fluo-4 calcium assay, HEK293T + Galpha16gust44", "format": "cell-based"}},
  "note": "Substitutions are numbered along the chain they refer to.",
  "data": [
    {"smiles": "OC[C@H]1O[C@@H](Oc2ccc(O)cc2)[C@H](O)[C@@H](O)[C@@H]1O", "note": "[arbutin]", "values": [
      {"measurement": "EC50", "setting": "hTAS2R16 (ssr3-hTAS2R16) [1]", "value": 1.34, "unit": "mM"},
      {"measurement": "EC50", "setting": "hTAS2R16 (ssr3-hTAS2R16) [2]", "value": 10.6, "unit": "mM"}
    ]}
  ]
}
